Experimental data: US10238658B2, “1-pyrazolyl-3-(4-((2-anilinopyrimidin-4-yl) oxy) napththalen-1-yl) ureas as p38 MAP kinase inhibitors” (Respivert Limited, priority 2011, dated 2019)

Assays:
[1] = system: ICAM-1; test: Poly I:C-induced ICAM-1 expression in BEAS2B cells; type: cell-based; settings: Homo sapiens, BEAS-2B, read-out: PolyIC/ICAM1 IC50 (BEAS2B)
Protocol: Poly I:C was used in these studies as a simple, RNA virus mimic. Poly I:C-Oligofectamine mixture (1 μg/mL Poly I:C, ±2% Oligofectamine, 25 μL; Invivogen Ltd., San Diego, Calif., and Invitrogen, Carlsbad, Calif., respectively) was transfected into BEAS2B cells (human bronchial epithelial cells, ATCC). Cells were pre-incubated with final concentrations of test compounds for 2 hr and the level of ICAM-1 expression on the cell surface was determined by cell-based ELISA. At a time point 18 hr after poly I:C transfection, cells were fixed with 4% formaldehyde in PBS (100 μL) and then endogenous peroxidase was quenched by the addition of washing buffer (100 μL, 0.05% Tween in PBS: PBS-Tween) containing 0.1% sodium azide and 1% hydrogen peroxide. Cells were washed with wash-buffer (3×200 μL). and after blocking the wells with 5% milk in PBS-Tween (100 μL) for 1 hr, the cells were incubated with anti-human ICAM-1 antibody (50 μL; Cell Signaling Technology, Danvers, Mass.) in 1% BSA PBS overnight at 4° C.
The cells were washed with PBS-Tween (3×200 μL) and incubated with the secondary antibody (100 μL; HRP-conjugated anti-rabbit IgG, Dako Ltd., Glostrup, Denmark). The cells were then incubated with of substrate (50 μL) for 2-20 min, followed by the addition of stop solution (50 μL, 1N H2SO4). The ICAM-1 signal was detected by reading […] the absorbance at 450 nm against a reference wavelength of 655 nm using a spectrophotometer. The cells were then washed with PBS-Tween (3×200 μL) and total cell numbers in each well were determined by reading absorbance at 595 nm after Crystal Violet staining (50 μL of a 2% solution in PBS) and elution by 1% SDS solution (100 μL) in distilled water. The measured OD 450-655 readings were corrected for cell number by dividing with the OD595 reading in each well. The inhibition of ICAM-1 expression was calculated at each concentration of test compound by comparison with vehicle control.

[2] = system: d-U937 cells; test: Cell viability: MTT assay; type: cell-based, human; settings: 1 μg/mL
Protocol: Differentiated U937 cells were pre-incubated with each test compound (final concentration 1 μg/mL or 10 μg/mL in 200 μL media indicated below) under two protocols: the first for 4 hr in 5% FCS RPMI1640 media and the second in 10% FCS RPMI1640 media for 24 h. The supernatant was replaced with new media (200 μL) and MTT stock solution (10 μL, 5 mg/mL) was added to each well. After incubation for 1 hr the media were removed, DMSO (200 μL) was added to each well and the plates were shaken lightly for 1 hr prior to reading the absorbance at 550 nm. The percentage loss of cell viability was calculated for each well relative to vehicle (0.5% DMSO) treatment. Consequently an apparent increase in cell viability for drug treatment relative to vehicle is tabulated as a negative percentage.

[3] = system: IL-6; test: TNFα-stimulated IL-6 production in primary bronchial epithelial cells from COPD; type: cell-based; settings: Homo sapiens, Epithelial cell
Protocol: Primary airway epithelial cells obtained from patients with COPD were purchased from Asterand (Royston, UK), and maintained in bronchial epithelial cell growth media that was prepared by mixing together LHC8 (lnvitrogen) (500 mL), with LHC9 (Invitrogen) (500 mL) and 3 μL of retinoic acid solution (5 mg/mL in neat DMSO. The media was removed by aspiration and fresh BEGM (200 μL) was added to each well. Where appropriate, 1 μL of a solution of the test compound at the state concentrations or 1 μL of DMSO as the vehicle control was added and the cells were incubated for 2 hr. The cells were stimulated with TNFα (50 μL; final concentration 50 ng/mL) and then incubated for 4 hr at 37° C. and 5% CO2. The supernatant was then collected and kept at −20° C.
The levels of IL-6 and IL-8 were determined by ELISA using R&D Systems' Human IL-6 and IL-8 Duoset® Elisa Kits. The inhibition of IL-6 and IL-8 production was calculated at each concentration by comparison with vehicle control.

[4] = system: CXCL1 (KC); test: Cigarette smoke model: CXCL1 (KC) in BALF; type: in vivo, mouse; settings: mice
Protocol: A/J mice (males, 5 weeks old) were exposed to cigarette smoke (4% cigarette smoke, diluted with air) for 30 min/day for 11 days using a Tobacco Smoke Inhalation Experiment System for small animals (Model SIS-CS; Sibata Scientific Technology, Tokyo, Japan). Test substances were administered intra-nasally (35 μL of solution in 50% DMSO/PBS) once daily for 3 days after the final cigarette smoke exposure. At 12 hr after the last dosing, each of the animals was anesthetized, the trachea cannulated and bronchoalveolar lavage fluid (BALF) was collected. The numbers of alveolar macrophages and neutrophils were determined by FACS analysis (EPICS® ALTRA II, Beckman Coulter, Inc., Fullerton, Calif., USA) using anti-mouse MOMA2 antibody (macrophage) or anti-mouse 7/4 antibody (neutrophil). BALF was centrifuged and the supernatant was collected. The level of keratinocyte chemoattractant (KC; CXCL1) in BALF was quantitated using a Quentikine® mouse KC ELISA kit (R&D systems, Inc., Minneapolis, Minn., USA).

[5] = system: ICAM-1; test: Rhinovirus-induced ICAM-1 expression in BEAS2B cells; type: cell-based; settings: Homo sapiens, BEAS-2B, read-out: IC50 Values for HRV Stimulated Release/Expression ICAM1 (BEAS2B)
Protocol: Human rhinovirus RV16 was obtained from the American Type Culture Collection (Manassas, Va.). Viral stocks were generated by infecting Hela cells with HRV until 80% of the cells were cytopathic.
BEAS2B cells were infected with HRV at an MOI of 5 and incubated for 2 hr at 33° C. with gentle shaking for to promote absorption. The cells were then washed with PBS, fresh media added and the cells were incubated for a further 72 hr. The supernatant was collected for assay of IL-8 concentrations using a Duoset ELISA development kit (R&D systems, Minneapolis, Minn.).
The level of cell surface ICAM-1 expression was determined by cell-based ELISA. At 72 hr after infection, cells were fixed with 4% formaldehyde in PBS. After quenching endogenous peroxidase by adding 0.1% sodium azide and 1% hydrogen peroxide, wells were washed with wash-buffer (0.05% Tween in PBS: PBS-Tween). […] The ICAM-1 signal was detected by adding substrate and reading at 450 nm with a reference wavelength of 655 nm using a spectrophotometer. The wells were then washed with PBS-Tween and total cell numbers in each well were determined by reading absorbance at 595 nm after Crystal Violet staining and elution by 1% SDS solution. The measured OD450-655 readings were corrected for cell number by dividing with the OD595 reading in each well. […]

SMILES | IC50 [1] | MTT Assay Cell viability at time point in d-U937 Cells 4 h ([2]; 4 h) | MTT Assay Cell viability at time point in d-U937 Cells 24 h ([2]; 24 h) | IC50 ([3]; COPD patients, TNFα stimulated) | Emax at 0.1 µg/mL ([3]; read-out: IL-6 E max, bronchial epithelial cell) | cigarette smoke induced CXCL1 (KC) production in BALF, effect in words [4] | IC50 [5]
Cc1ccc(-n2nc(C(C)(C)C)cc2NC(=O)Nc2ccc(Oc3ccnc(Nc4cccc(O)c4)n3)c3ccccc23)cc1 [Example 2, 1-(3-(tert-Butyl)-1-(p-tolyl)-1H-pyrazol-5-yl)-3-(4-((2-((3-hydroxyphenyl)amino)pyrimidin-4-yl)oxy)naphthalen-1-yl)urea] | 4.3 nM | −ve (−ve and +ve indicate the value is below and above respectively, the no significant effect threshold defined as 30% inhibition at 1 μg/mL at the time point indicated) | −ve (−ve and +ve indicate the value is below and above respectively, the no significant effect threshold defined as 30% inhibition at 1 μg/mL at the time point indicated) |  |  |  | 
Cc1ccc(-n2nc(C(C)(C)C)cc2NC(=O)Nc2ccc(Oc3ccnc(Nc4ccccc4)n3)c3ccccc23)cc1 [Example 1, 1-(3-(tert-Butyl)-1-(p-tolyl)-1H-pyrazol-5-yl)-3-(4-(2-(phenylamino)pyrimidin-4-yloxy)naphthalen-1-yl)urea] |  |  |  | 1.7 nM | 100% | inhibited | 0.023 nM
